Measured values from ChEMBL document CHEMBL3621041, “Optimization of a Novel Binding Motif to (E)-3-(3,5-Difluoro-4-((1R,3R)-2-(2-fluoro-2-methylpropyl)-3-methyl-2,3,4,9-tetrahydro-1H-pyrido[3,4-b]indol-1-yl)phenyl)acrylic Acid (AZD9496), a Potent and Orally Bioavailable Selective Estrogen Receptor Downregulator and Antagonist” (J Med Chem, 2015).
In brackets after ≈: the same amount, converted by molar mass. Activity calls are given as the source filed them. No cut-off for these calls is given here.

How the values were obtained:
Glucocorticoid receptor = target: T1, Glucocorticoid receptor (Homo sapiens, UniProt P04150); test: Binding affinity to glucocorticoid receptor (unknown origin); conditions: read-out: pIC50 (converted)
T1 sequence (P04150 whole entry): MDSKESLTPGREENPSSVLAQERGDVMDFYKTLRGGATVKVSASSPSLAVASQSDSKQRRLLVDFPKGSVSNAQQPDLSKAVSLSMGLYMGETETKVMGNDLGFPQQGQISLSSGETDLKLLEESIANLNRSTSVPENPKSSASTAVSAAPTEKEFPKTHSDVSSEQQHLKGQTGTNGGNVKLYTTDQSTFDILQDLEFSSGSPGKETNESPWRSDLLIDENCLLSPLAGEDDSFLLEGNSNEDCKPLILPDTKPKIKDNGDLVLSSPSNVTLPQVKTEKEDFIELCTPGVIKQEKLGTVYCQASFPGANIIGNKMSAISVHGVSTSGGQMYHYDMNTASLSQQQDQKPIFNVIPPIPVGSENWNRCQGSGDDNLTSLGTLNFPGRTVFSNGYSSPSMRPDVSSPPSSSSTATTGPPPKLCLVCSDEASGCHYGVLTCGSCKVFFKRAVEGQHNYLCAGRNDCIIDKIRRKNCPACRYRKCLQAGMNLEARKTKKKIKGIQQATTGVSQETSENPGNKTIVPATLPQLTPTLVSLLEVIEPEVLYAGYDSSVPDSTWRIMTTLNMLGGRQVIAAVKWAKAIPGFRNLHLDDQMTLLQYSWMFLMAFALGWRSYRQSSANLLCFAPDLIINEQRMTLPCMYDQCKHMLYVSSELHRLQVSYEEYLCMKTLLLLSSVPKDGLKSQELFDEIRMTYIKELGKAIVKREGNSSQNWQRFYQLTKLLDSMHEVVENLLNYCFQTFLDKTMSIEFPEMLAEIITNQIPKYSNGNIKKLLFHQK

Androgen receptor = target: T2, Androgen receptor (Homo sapiens, UniProt P10275); test: Binding affinity to androgen receptor (unknown origin); conditions: read-out: pIC50 (converted)
T2 sequence (P10275 whole entry): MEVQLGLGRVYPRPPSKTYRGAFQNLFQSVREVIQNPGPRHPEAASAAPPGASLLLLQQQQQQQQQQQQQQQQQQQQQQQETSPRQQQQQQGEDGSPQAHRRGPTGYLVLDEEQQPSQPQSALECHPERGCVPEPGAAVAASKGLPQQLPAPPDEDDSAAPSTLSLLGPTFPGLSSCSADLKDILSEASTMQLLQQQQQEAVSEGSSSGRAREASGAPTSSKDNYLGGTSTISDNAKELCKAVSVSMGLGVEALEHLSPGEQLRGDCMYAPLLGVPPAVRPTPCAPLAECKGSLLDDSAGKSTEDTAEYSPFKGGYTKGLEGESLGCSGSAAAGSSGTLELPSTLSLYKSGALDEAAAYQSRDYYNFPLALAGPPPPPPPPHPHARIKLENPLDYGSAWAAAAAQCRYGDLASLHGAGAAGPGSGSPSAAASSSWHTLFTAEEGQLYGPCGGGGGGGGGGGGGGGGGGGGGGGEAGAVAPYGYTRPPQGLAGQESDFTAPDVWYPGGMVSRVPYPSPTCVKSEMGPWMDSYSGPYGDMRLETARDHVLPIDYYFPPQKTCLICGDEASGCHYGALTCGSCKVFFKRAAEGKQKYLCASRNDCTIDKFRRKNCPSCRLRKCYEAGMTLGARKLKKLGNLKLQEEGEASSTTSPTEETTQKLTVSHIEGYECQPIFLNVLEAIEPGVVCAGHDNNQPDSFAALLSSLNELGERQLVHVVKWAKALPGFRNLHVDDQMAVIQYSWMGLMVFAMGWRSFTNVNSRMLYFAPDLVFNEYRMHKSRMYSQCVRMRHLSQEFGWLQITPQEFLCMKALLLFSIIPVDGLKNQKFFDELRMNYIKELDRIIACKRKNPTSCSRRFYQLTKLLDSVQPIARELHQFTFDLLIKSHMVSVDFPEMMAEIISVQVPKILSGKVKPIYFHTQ

Progesterone receptor [1] = target: T3, Progesterone receptor (Homo sapiens, UniProt P06401); test: Binding affinity to progesterone receptor (unknown origin)
T3 sequence (P06401 whole entry): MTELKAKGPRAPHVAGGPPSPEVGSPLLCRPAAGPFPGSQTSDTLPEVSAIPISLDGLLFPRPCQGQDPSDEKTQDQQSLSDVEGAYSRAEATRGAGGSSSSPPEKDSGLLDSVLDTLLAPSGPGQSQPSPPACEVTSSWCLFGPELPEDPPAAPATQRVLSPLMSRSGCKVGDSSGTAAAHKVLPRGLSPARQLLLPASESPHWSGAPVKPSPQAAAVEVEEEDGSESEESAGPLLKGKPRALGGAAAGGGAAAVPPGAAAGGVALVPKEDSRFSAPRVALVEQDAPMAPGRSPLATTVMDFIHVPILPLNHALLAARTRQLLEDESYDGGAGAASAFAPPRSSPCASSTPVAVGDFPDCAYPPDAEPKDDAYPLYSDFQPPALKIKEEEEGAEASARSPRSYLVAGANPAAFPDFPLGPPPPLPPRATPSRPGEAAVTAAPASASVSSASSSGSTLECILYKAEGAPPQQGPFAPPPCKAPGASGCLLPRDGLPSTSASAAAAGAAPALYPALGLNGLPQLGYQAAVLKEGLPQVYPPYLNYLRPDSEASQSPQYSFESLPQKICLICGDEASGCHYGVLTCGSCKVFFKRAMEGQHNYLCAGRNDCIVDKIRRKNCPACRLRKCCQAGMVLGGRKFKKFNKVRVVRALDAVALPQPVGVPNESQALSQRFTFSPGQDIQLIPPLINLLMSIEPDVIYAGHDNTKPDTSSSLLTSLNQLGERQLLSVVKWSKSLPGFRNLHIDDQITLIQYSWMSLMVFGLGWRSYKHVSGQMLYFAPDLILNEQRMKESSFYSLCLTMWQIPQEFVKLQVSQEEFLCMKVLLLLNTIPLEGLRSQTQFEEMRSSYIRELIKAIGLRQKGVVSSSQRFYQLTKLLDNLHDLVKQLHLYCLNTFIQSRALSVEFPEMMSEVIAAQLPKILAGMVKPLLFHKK

[2] = Intrinsic clearance in human cryopreserved hepatocytes assessed per 10^6 cells; format: ADME, cell-based, Hepatocyte; conditions: read-out: CLH
[3] = Thermodynamic solubility of the compound in 0.1 M phosphate buffer at pH 7.4 after 24 hrs; format: physicochemical; conditions: read-out: Therm_solubility
[4] = Lipophilicity, log D of the compound at pH 7.4; format: physicochemical; conditions: buffer
Estrogen receptor [5] = target: T4, Estrogen receptor (Homo sapiens, UniProt P03372)
T4 sequence (P03372 whole entry): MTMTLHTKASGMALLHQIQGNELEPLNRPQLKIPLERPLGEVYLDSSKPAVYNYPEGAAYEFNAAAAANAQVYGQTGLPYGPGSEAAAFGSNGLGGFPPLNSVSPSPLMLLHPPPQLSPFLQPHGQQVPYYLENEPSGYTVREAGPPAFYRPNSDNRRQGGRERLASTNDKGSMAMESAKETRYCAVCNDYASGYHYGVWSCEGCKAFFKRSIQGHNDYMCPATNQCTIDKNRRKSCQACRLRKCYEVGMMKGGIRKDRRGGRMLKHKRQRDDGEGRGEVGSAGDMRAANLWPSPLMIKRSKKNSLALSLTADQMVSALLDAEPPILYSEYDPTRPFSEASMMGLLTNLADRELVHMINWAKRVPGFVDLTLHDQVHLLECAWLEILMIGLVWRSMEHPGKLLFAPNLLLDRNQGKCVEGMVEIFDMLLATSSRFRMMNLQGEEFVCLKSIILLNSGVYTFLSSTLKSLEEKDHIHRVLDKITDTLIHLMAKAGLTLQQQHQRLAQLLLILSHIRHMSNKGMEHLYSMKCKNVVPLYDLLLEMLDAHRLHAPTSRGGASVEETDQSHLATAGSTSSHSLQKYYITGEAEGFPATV
Description: Antagonist activity at ERalpha receptor in human MCF7 cells

Progesterone receptor [6] = target: T3, Progesterone receptor; test: Agonist activity at progesterone receptor in human MCF7 cells; format: cell-based
[7] = Intrinsic clearance in rat cryopreserved hepatocytes assessed per 10^6 cells; format: ADME, cell-based, Hepatocyte; conditions: read-out: CLH
[8] = Fraction unbound in Han Wistar rat 10% plasma by equilibrium dialysis; format: ADME, cell-free
Estrogen receptor [9] = target: T4, Estrogen receptor; remark: listed apart in the source
Description: Binding affinity to ERalpha receptor (unknown origin)

MCF7 = test: cells; conditions: Homo sapiens, MCF7, read-out: pIC50 (converted)
Description: Antiproliferative activity against human MCF7 cells

[10] = target: T5, Progesterone receptor (Homo sapiens) (UniProt P06401); test: Agonist activity at progesterone receptor (unknown origin) at 100 uM
T5 sequence (whole entry): T3 sequence (P06401 whole entry)

[11] = Fraction unbound in human 10% plasma by equilibrium dialysis; format: ADME, cell-free
[12] = Oral bioavailability in Han Wistar rat at 5 umol/kg; format: ADME, organism-based; conditions: in vivo
[13] = Volume of distribution at steady state in Han Wistar rat at 2 umol/kg, iv and 5 umol/kg, po; format: ADME, organism-based; conditions: in vivo, read-out: Vdss
[14] = Clearance in Han Wistar rat at 2 umol/kg, iv and 5 umol/kg, po; format: ADME, organism-based; conditions: in vivo

Row | Compound | IC50 (Estrogen receptor [5]) | IC50 (Progesterone receptor [6]) | IC50 (Estrogen receptor [9]) | IC50 (MCF7) | further results
1 | OCCN1CCc2c([nH]c3ccccc23)C1c1ccc(Cl)cc1 (racemic) | 1170 nM | > 100000 nM | 2040 nM | – | IC50 (Glucocorticoid receptor): > 31600 nM; IC50 (Androgen receptor): > 31600 nM; IC50 (Progesterone receptor [1]): > 31600 nM; hepatocyte CLint [2]: 70 µL/min/1e6 cells; solubility thermodynamic at 24 h [3]: 15 µM (≈ 4.9 µg/mL); logD [4]: 3.7; hepatocyte CLint [7]: 300 µL/min/1e6 cells; fraction unbound [8]: 0.045
2 | CCC(=C(c1ccc(O)cc1)c1ccc(OCCN(C)C)cc1)c1ccccc1 | – | > 100000 nM | – | 0.537 nM | –
3 | C[C@@H]1Cc2c([nH]c3ccccc23)[C@@H](c2ccc(Cl)cc2)N1CCC(=O)O | 776 nM | > 100000 nM | 1780 nM | > 25100 nM | percent agonist activity [10]: 15%
4 | C[C@H](CO)CN1[C@H](c2ccc(/C=C/C(=O)O)cc2)c2[nH]c3ccccc3c2C[C@H]1C | 46.8 nM | > 100000 nM | 69.2 nM | 22.4 nM | fraction unbound [11]: 0.046; hepatocyte CLint [2]: 26 µL/min/1e6 cells; solubility thermodynamic at 24 h [3]: > 1400 µM; logD [4]: 1.6; hepatocyte CLint [7]: 21 µL/min/1e6 cells; fraction unbound [8]: 0.091
5 | C[C@@H]1Cc2c([nH]c3ccccc23)[C@@H](c2ccc(/C=C/C(=O)O)cc2)N1CC(C)(C)F | – | > 3160 nM | – | 0.324 nM | –
6 | CC/C(=C(\c1ccccc1)c1ccc(OCCN(C)C)cc1)c1ccccc1 [TAMOXIFEN] | – | – | – | 57.5 nM | –
7 | CC/C(=C(\c1ccccc1)c1ccc(/C=C/C(=O)O)cc1)c1ccccc1 | – | > 100000 nM | – | 295 nM | percent agonist activity [10]: inactive
8 | C[C@]12CC[C@@H]3c4ccc(O)cc4C[C@@H](CCCCCCCCC[S+]([O-])CCCC(F)(F)C(F)(F)F)[C@H]3[C@@H]1CC[C@@H]2O (some centres not stated) [FULVESTRANT] | – | > 100000 nM | – | 0.1 nM | –
9 | C[C@@H]1Cc2c([nH]c3ccccc23)[C@@H](c2ccc(/C=C/C(=O)O)cc2)N1CCO | 1320 nM | > 100000 nM | 692 nM | 813 nM | –
10 | CC(C)CN1[C@H](c2c(F)cc(/C=C/C(=O)O)cc2F)c2[nH]c3ccccc3c2C[C@H]1C | 0.417 nM | > 3160 nM | 0.708 nM | 0.229 nM | –
11 | CC/C(=C(\c1ccc(O)cc1)c1ccc(/C=C/C(=O)O)cc1)c1ccccc1 | – | > 31600 nM | – | – | percent agonist activity [10]: inactive
12 | C[C@@H]1Cc2c([nH]c3ccccc23)[C@@H](c2ccc(Cl)cc2)N1C[C@H](C)C(=O)O | 30.2 nM | 12.9 nM | 70.8 nM | > 31600 nM | bioavailability [12]: 42%; fraction unbound [11]: 0.015; hepatocyte CLint [2]: 23 µL/min/1e6 cells; Vd [13]: 0.34 L/kg; solubility thermodynamic at 24 h [3]: 1440 µM (≈ 551 µg/mL); logD [4]: 2.8; clearance [14]: 14 mL/min/kg; hepatocyte CLint [7]: 82 µL/min/1e6 cells; fraction unbound [8]: 0.032
13 | C[C@@H](CO)CN1[C@H](c2ccc(/C=C/C(=O)O)cc2)c2[nH]c3ccccc3c2C[C@H]1C | 45.7 nM | > 100000 nM | 97.7 nM | – | –
14 | C[C@@H]1Cc2c([nH]c3ccc(O)cc23)[C@@H](c2ccc(Cl)cc2)N1CCO | 43.7 nM | 33.1 nM | 22.4 nM | > 31600 nM | –
15 | O=C(O)CCN1CCc2c([nH]c3ccccc23)C1c1ccc(Cl)cc1 (racemic) | 3720 nM | > 31600 nM | 13800 nM | – | bioavailability [12]: 85%; hepatocyte CLint [2]: 19 µL/min/1e6 cells; Vd [13]: 0.6 L/kg; solubility thermodynamic at 24 h [3]: > 1600 µM; logD [4]: 1.6; clearance [14]: 4 mL/min/kg; hepatocyte CLint [7]: 29 µL/min/1e6 cells; fraction unbound [8]: 0.072
16 | C[C@@H]1Cc2c([nH]c3ccccc23)[C@@H](c2ccc(Cl)cc2)N1CCO | 85.1 nM | > 100000 nM | 39.8 nM | 13800 nM | percent agonist activity [10]: 15%
